What was measured:
BT474 = experiment: Fluorescence microscopy uptake of probe in tumor cells; assay type: cell-based, human; details: micromolar concentrations, FIG. 4
Text: (§1) In one experiment, the fluorescein compound 10 was applied at micromolar concentrations to four types of tumor cells. […] The probe (10) fluoresces to give green staining in images obtained; in FIG. 4, the green staining appears white.

Huh7 cell line = experiment: as above; assay type: cell-based, human; details: micromolar concentrations; Huh7, non-metastatic; FIG. 4
Text: as §1

MCF-7 = experiment: as above; assay type: cell-based, human; details: micromolar concentrations, FIG. 4
Text: as §1

MDA-MB 468 = experiment: as above; assay type: cell-based, human; details: micromolar concentrations, FIG. 4
Text: as §1

MCF10 (benign) cells = experiment: Probe detection of Hsp90 in cells ± membrane permeabilization with Triton X 100; assay type: cell-based; details: MCF10, non-permeabilized; FIG. 5B
Procedure: (§2) In another experiment, MCF7 (metastatic) and MCF10 (benign) cells were treated with an Hsp90 antibody±membrane permeabilization with Triton X 100. […] After permeabilization the antibody recognizes intracellular Hsp90. […] The experiment was also performed using fluorescein compound 10. […] In FIGS. 5A-5B the green staining from compound 10 fluorescence appears white, while blue from the DAPI-stained nuclei appears gray.

MCF7 (metastatic) cells = experiment: as above; assay type: cell-based; details: FIG. 5B
Procedure: as §2

MCF7 cells = experiment: Compound 10 fluorescence in MCF7 cells with anti-Hsp90 antibody or competing compound 5; assay type: cell-based; details: FIG. 6B
Procedure: In FIG. 6B, the compound was added in the presence of an antibody to Hsp90. […] DAPI (blue) highlights the nucleus of the cell. In FIG. 6 the green staining from compound 10 fluorescence appears white, while blue from the DAPI-stained nuclei appears gray.

xenografts (MDA-MB 468) = experiment: Confocal analysis of xenograft tissue slices after IP injection; assay type: in vivo; details: harvested one hour after injection (IP), FIG. 8
Procedure: Tissue slices were prepared from the harvested xenografts and prepared for analysis by confocal analysis. […] A tissue slice from the control experiment is shown in which the animal was injected with vehicle alone (DMSO). Only background fluorescence is detected. In FIG. 8 the green staining from compound 10 fluorescence appears white or light gray, while blue from the DAPI-stained nuclei appears dark gray.

[1] = test system: MDA-MB-468 tumor-bearing mice; experiment: Biodistribution of compound 10 in mouse xenografts by flow cytometry; assay type: in vivo, NOD/SCID mice; details: 1 mg/mouse intraperitoneally, 2, 24, 48 or 72 hours
Procedure: MDA-MB-468 cells (5M cells/mouse) were injected to the flank of NOD/SCID mice. When tumors reached 5-10 mm in diameter, tumor-bearing mice were intraperitoneally injected with compound 10 (1 mg/mouse, in 100 μL of DMSO). After 2, 24, 48 or 72 hours, mice were sacrificed and tumors, livers and spleens were harvested. Tumors and livers were digested with collagenase/hyarulonidase/DNase for 1 hour at 37° C., and ficolled to eliminate debris and dead cells, and then washed. Cells in tumor digest were labeled with anti-mouse CD45-biotin+anti-H2-kD-biotin for 15 min on ice, and then 15 min with streptavidin-APC. Tumor cells were analyzed by flow cytometry to detect fluorescence from compound 10. Mouse lineage negative cells were gated for the analysis. Spleen were minced and passed through the strainer. Splenocytes, liver cells and tumor cells were analyzed by flow cytometry to detect fluorescence from compound 10.
Spleen were minced and passed through a strainer to get rid of aggregations/membranous tissue. Cells were stained with violet viability dye. Viable cells were analyzed for their compound 10 uptake.
Liver tissues were minced with blades and digested with triple enzyme buffer (collagenase III, hyarulonidase, DNAse) for 1 h at 37° C., and cells were passed through a strainer to get rid of aggregations. Cells were stained with violet viability dye. Viable cells were analyzed for their compound 10 uptake.
Tumor tissues were minced with blades and digested with triple enzyme buffer (collagenase III, hyarulonidase, DNAse) for 1 h at 37° C., and cells were passed through a strainer to get rid of aggregations. Cells were stained with anti-mouse CD45-biotin/anti-H2-kd-biotin and then streptavidin-APC and violet viability dye. Viable and CD45/H2-kd negative cells were analyzed for their compound 10 uptake.

MDA-MB-468 tumor = experiment: In vivo detection of compound 10 with optical spectroscopy; parameters: species or system SCID mice; details: 1 mg via tail vein, FIG. 15
Procedure: MDA-MB-468 tumor cells (1 M cells/mouse) were injected to the flank of SCID mice. Three weeks later, when tumor size reached 5-8 mm in diameter, the experiment was performed. Baseline autofluorescence levels were measured for tumor and normal tissues (skin adjacent to tumor). 1 mg or 0.5 mg of compound 10 was injected via tail vein. After drug injection, fluorescence signals were measured with the optical spectroscopy (˜30 min). Two days after injection, measurement of fluorescence signal was repeated.
Normal: Normal skin adjacent to tumor. All data are normalized to peak fluorescence intensity to compare fluorescence line shapes. […] Measurements were made within a few minutes of injection.

[2] = test system: TZM-bl (Hela derived) cells infected with NL4.3 virus (HIV-1); experiment: Confocal microscopy of cells infected with HIV-1 treated with compound 10; assay type: cell-based
Procedure: TZM-bl (Hela derived) cells were added on glass coverslips in 24-well plates (1×10^5 cells/well) and were allowed to attach to cover slips overnight. For infection NL4.3 virus (HIV-1) was added to medium to achieve 10 ng/mL P24 protein concentration along with DEAE dextran at a final concentration 15 μg/mL. After 48 hours of infection, compound 10 was added to the medium and incubated for 1 hour at 37° C. Later the infected cells were washed twice with phosphate-buffered saline (PBS) and fixed for 20 min in 4% paraformaldehyde. They were washed twice with PBS and permeabilized for 30 min in 50% ice cold methanol on ice. Blocking was carried out using 1% FBS for 30 minutes at room temperature after two washes with PBS. Cells were then incubated for 2 hours at room temperature with antibody against HIV-1 capsid protein P24 at 1:100 dilutions in PBS. The antibody was obtained from the AIDS Reference and Reagent Program (HIV-1 p24 Monoclonal Antibody-183-H12-5C, Catalogue number: 3537). The cells were washed three times in PBS before and after 1 h of incubation with anti-mouse Texas Red secondary antibody (1:250). (Texas Red® Goat Anti-Mouse IgG (H+L), catalogue number: T682, Life technologies). […]

Hsp90 = experiment: Recovery of drug-bound protein from tumors of mice by micro anion-exchange chromatography; assay type: in vivo; details: 1 mg IV, tumors excised after 2 hours, FIG. 17
Procedure: Mice were injected (IV) with 1 mg of compound 10 and the tumors were excised from the animal after 2 hours. Tissue extracts were prepared and characterized by micro anion-exchange chromatography. Column fractions were analyzed for the presence of compound 10 by fluorescence and mass spectrometry.

Cc1nn(-c2ccc(C(N)=O)c(NCCCOCCOCCOCCOCCOCCCNC(=S)Nc3ccc4c(c3)C(=O)OC43c4ccc(O)cc4Oc4cc(O)ccc43)c2)c2c1C(=O)CC(C)(C)C2 [Compound 10, 2-((1-((3′,6′-dihydroxy-3-oxo-3H-spiro[isobenzofuran-1,9′-xanthen]-5-yl)amino)-1-thioxo-6,9,12,15,18-pentaoxa-2-azahenicosan-21-yl)amino)-4-(3,6,6-trimethyl-4-oxo-4,5,6,7-tetrahydro-1H-indazol-1-yl)benzamide]
uptake of the probe (BT474): take up the probe readily
uptake of the probe (Huh7 cell line): does not absorb the probe
uptake of the probe (MCF-7): take up the probe readily
uptake of the probe (MDA-MB 468): take up the probe readily
probe entry and detection of Hsp90 (MCF10 (benign) cells): not in MCF10 cells
probe entry and detection of Hsp90 (MCF7 (metastatic) cells; MCF7, non-permeabilized): enters and detects Hsp90
detection of intracellular Hsp90 following permeabilization (MCF7 (metastatic) cells; MCF7 compared with MCF10, Triton X 100): detects more intracellular Hsp90 in MCF7s
localisation of the probe in the presence of an antibody to Hsp90 (MCF7 cells): accumulate at the membrane
presence of compound in tumor cells of xenograft (xenografts (MDA-MB 468)): detected within the tumor cells
accumulation in splenocytes ([1]; FIG. 10A): little accumulation
accumulation in liver cells ([1]; FIG. 10B): little accumulation
accumulation in tumor cells ([1]; FIG. 10C): high degree of accumulation
fluorescence signal in tumor, Day 3 (MDA-MB-468 tumor): still retains FITC signal
fluorescence signal at normal site, Day 3 (MDA-MB-468 tumor; normal skin adjacent to tumor): declined to pre-injection baseline level
fluorescence signal, normal skin versus tumor, Day 0 (MDA-MB-468 tumor; within a few minutes of injection): Normal shows higher signal than tumor
detection of HIV infected cells ([2]; 48 hours of infection, 1 hour at 37° C., FIG. 16): can be used to detect cells infected with HIV
recognition of uninfected cells ([2]; FIG. 16 panel D): do not recognize uninfected cells
two minor peaks of fluorescence of tumor extract (Hsp90; fractions 27-35): attributable to binding to degraded forms of the N terminal domain of Hsp90
major peak of fluorescence of tumor extract (Hsp90; fractions 49-53): correlates with elution of full length Hsp90

Source: patent US10927115B2, “Substituted heterocycles for targeting Hsp90” (Duke University, priority 2012, dated 2021)
